Structure (SMILES)	melting point [°C]
O=[N+]([O-])c1ccc(Br)c([N+](=O)[O-])c1	72
CN(N)c1c(N(C)N)c(=O)c1=O	201 to 202
CC(C)[C@H]1NC(=O)CNC1=O	250 to 260
CN(C)c1ccc2cc3ccc(N(C)C)cc3nc2c1	165
Cc1cc([N+](=O)[O-])ccc1F	39
ClC(Cl)=C(c1ccc(Cl)cc1)c1ccc(Cl)cc1	89
C(=Nc1ccccc1)=Nc1ccccc1	169
CC1(C)OC(=O)C1(C)C	132
O=C1NC(=S)NC(=O)C1=NNc1ccccc1[N+](=O)[O-]	330
O=C1OC2(c3cc(Cl)c(O)cc3Oc3cc(O)c(Cl)cc32)c2ccccc21	280
OC12Cc3ccccc3C(O)(Cc3ccccc31)O2	160 to 167
O=C(CN1CCN(Cc2ccc3c(c2)OCO3)CC1)N1c2ccccc2Sc2ccccc21	142
C/C=C(\C)c1ccccc1	-23.5
O=C1OC(c2ccccc2)=NC1=Cc1ccco1	158 to 159
O=C(Nc1ccc([N+](=O)[O-])cc1Br)C1(F)C(F)(F)C(F)(F)C(F)(F)C(F)(F)C1(F)F	102
NCc1ccccc1-n1cccc1	156 to 157
Clc1nc(Cl)c(Cl)c(Cl)n1	69
O=C(Nc1ccc([N+](=O)[O-])cc1[N+](=O)[O-])C(C(F)(F)F)(C(F)(F)F)C(F)(F)F	164
CN1CCN(c2cccc(N)c2)CC1	98 to 99
O=[N+]([O-])c1cc([N+](=O)[O-])c(Cl)c(C(F)(F)F)c1	63
Cc1cccc(N(C)C(=S)Oc2ccc3c(c2)CCC3)c1	94

Structure (SMILES)	melting point [°C]
O=C1C=C(NCc2ccc(Cl)cc2)C(=O)c2ccccc21	230
N#Cc1ccnc2ccccc12	104
Cc1ccc(N)c(Br)c1	26
O=C(/C=C/c1ccc(-c2ccc([N+](=O)[O-])cc2)o1)c1ccco1	187
N#CC1CCCCC1	11
Clc1cc(Cl)c(I)c(Cl)c1	56 to 58
Oc1ccc(CCc2nnc(S)n2-c2ccc(F)cc2)cc1	204 to 205
O=C(c1ccc(F)cc1)N1CCCCC1	60 to 62
Nc1nonc1N	178 to 183
C(=Cc1ccccn1)c1ccccn1	118
Clc1ccc2nonc2c1	37 to 40
CCOP(=S)(Oc1ccc([N+](=O)[O-])cc1)c1ccccc1 (stereo not given)	36
OC(c1ccccc1)(c1ccccc1)[C@H]1CCCN1	77 to 81
O=S1(=O)Cc2ncc3ccccc3c2C1	210
O=C=Nc1cccs1	108 to 110
Nc1ccc2scnc2c1	55 to 59
S=C(Oc1ccccc1)Oc1ccccc1	106
Nc1ccc(CN2CCCCC2)cc1	87 to 88
O=C(C1=NOC2C(=O)N(c3cccc([N+](=O)[O-])c3)C(=O)C12)c1cccc2ccccc12 (stereo not given)	191
Nc1ncc(Cl)cc1[N+](=O)[O-]	193
Cc1ccc(C)c2c1C(=O)N(C)C2=O	170

Structure (SMILES)	melting point [°C]
O=C1C=CC(=O)c2cc3ccccc3cc21	223 to 226
CC(=O)Nc1cc([N+](=O)[O-])c(/C=C/c2ccccc2)c([N+](=O)[O-])c1/C=C/c1ccccc1	171
COc1ccc(Br)cc1/C=c1\sc2nc3ccccc3n2c1=O	250 to 252
CC1CSC(C=Cc2ccccc2[N+](=O)[O-])S1 (stereo not given)	70
COc1ccc(C=CC#N)c(Cl)c1OC	107 to 110
C1COCCOCCOCCOCCOCCN1	48
CC1(C)OC(=O)C(=Cc2ccc(-c3ccccc3[N+](=O)[O-])o2)C(=O)O1	153
Sc1nccc(-c2ccc(Cl)cc2)n1	210 to 214
COc1ccc(Br)cc1S(=O)(=O)Cl	114
Nc1c(CN2CCCCC2)c(=O)oc2ccccc12	190
Cc1cc([N+](=O)[O-])ccc1N=C=O	83
CCC1=C(C=NNc2ccc([N+](=O)[O-])cc2[N+](=O)[O-])CCCC1	192 to 194
CSc1nc(N=Cc2ccc(Cl)cc2)nn1C	136 to 138
Cc1cc(C)c(S(=O)(=O)NN)c(C)c1	114
O=Cc1cccc2cccc([N+](=O)[O-])c12	125
C#CCCCCCC#C	-21
O=C1OC(c2ccc([N+](=O)[O-])cc2)Cc2ccccc21 (stereo not given)	184
CC(=O)OC1CCC2(C)C(CCC3C2CCC2(C)C3CCC23OCCO3)C1 (stereo not given)	153
O=Cc1cccc(Oc2ccccn2)c1	115 to 116
O=Cc1cc(I)c(O)c(I)c1	201
CCOC(C)OCC	-100

Structure (SMILES)	melting point [°C]
Cc1cc(C)c2c(=O)[nH]n(C)c2n1	216
CCCCCCCCCCCc1ccccc1	-5
Nc1ccc(N)c2c1C(=O)c1cccc([N+](=O)[O-])c1C2=O	257
Cc1cccc2c1CCCC2	-23
Nc1ccccc1-n1cccn1	44 to 46
COc1ccc(C(=O)OC(COc2ccc(C=CC(=O)c3ccccc3)cc2)COc2ccc(C(=O)C=Cc3ccccc3)cc2)cc1 (stereo not given)	74
COc1ccc(C(=CC(=O)N2CCOCC2)c2ccc(Cl)cc2)cc1OC	148
CN(C)CCn1cnc2c1c(=O)n(C)c(=O)n2C	95
CN(C)c1nncc(-c2cnnc(N(C)C)n2)n1	224
CC(C)(C)c1ccc(CCOc2ncnc3ccccc23)cc1	80.5
O=S(=O)(Cl)c1ccc(-c2cnco2)cc1	101
Cn1ncc(N2CCOCC2)c(Cl)c1=O	131 to 133
Cc1ccc2[nH]ccc2c1	60
CNc1ncc(C(F)(F)F)cc1[N+](=O)[O-]	98 to 100
CC(C)(C)OOC(C)(C)C	-30
CC(C)CC(=O)NC(C(=O)NC(C(=O)NC(CC(C)C)C(O)CC(=O)NC(C)C(=O)NC(CC(C)C)C(O)CC(=O)O)C(C)C)C(C)C (stereo not given)	233
CC1CCC2C(C)C3C(CC4C5CC=C6CC(O)CCC6(C)C5CCC43C)N2C1 (stereo not given)	218
O/N=C(\Cc1ccccc1)c1ccc2ccccc2c1	128 to 130
O=[N+]([O-])c1cc(Cl)ccc1Sc1ccccc1	82 to 84

Second part, the molecule after the results:

melting point [°C]	Structure (SMILES)
42	COc1ccc(C(=O)C2CC2)cc1
149	O=C(O)COc1ccc(C(=O)c2cccs2)c(Cl)c1Cl
54	CN(C)C(=O)C(C(F)(F)F)C(F)(F)F
190 to 195	Cc1ccccc1NC(N)=O
286 to 288	C[C@](N)(CO)C(=O)O
-51	CCCCC(=O)N(C)C
237 to 239	Cc1c(NC(=O)C(C(F)(F)F)C(F)(F)F)c(=O)n(-c2ccccc2)n1C
239 to 242	Cc1[nH]c2ccc(C(=O)O)cc2c1C
133	COC(=O)c1cc(N)cc(N)c1
152 to 154	O=S(=O)(O)CCN(CCO)CCO
159	Nc1cccc(C=CC(=O)c2ccccc2)c1
153 to 155	NNC(=O)c1ccc(-c2ccccc2F)cc1
212	Cc1cncc(C(=O)O)c1
219	CC(CCC(=O)O)C1CCC2C3C(O)CC4CC5(CCC4(C)C3CC(=O)C12C)OCCO5 (stereo not given)
142	O=C(O)Cc1ccc2ccccc2c1
178 to 179	CSc1ncc(C(=O)O)n1Cc1ccccc1
73 to 76	COc1ccc(C(=O)c2cccs2)cc1
63 to 65	CCCc1c(C(=O)OCC)cnn1-c1ccc(Cl)cc1
84	CC(C)(CCC(=O)O)C(=O)O
181	CC12CCC(=O)C=C1CCC1C2C(O)CC2(C)C(C(=O)CO)CCC12 (stereo not given)
130	CC(C)NC(=O)COC(=O)c1ccccc1
293 to 294	O=C(O)c1ccc2ncccc2c1
164 to 165	CC(C)[C@@H](NC(=O)OC(C)(C)C)C(=O)O
58	CCOC(=O)C(Cc1ccccc1)(Cc1ccccc1)C(C)=O

melting point [°C]	Structure (SMILES)
124 to 125	COc1ccccc1C1OC(=O)CC1C(=O)O (stereo not given)
242	CC1CC2C3CC(F)C4=CC(=O)C=CC4(C)C3(F)C(O)CC2(C)C1C(=O)CO (stereo not given)
136	O=C(O)C(O)c1cc(F)cc(F)c1 (stereo not given)
129	COc1ccccc1C(N)=O
52 to 56	CCCCC[C@H]1CC[C@H](C(=O)O)CC1
69	OCCC1CCCCN1 (stereo not given)
81 to 83	N#CCC(=O)c1ccco1
78	OCc1cc(Cl)ccc1Cl
260	O=C(O)c1cc(=O)c2ccccc2o1
228	O=C(O)c1cccnc1C(=O)O
101	COC(=O)c1cc([N+](=O)[O-])ccc1OC
250	NNC(=O)c1ccc(Cl)nc1
< 25	O=S(=O)(O)C(F)(F)F
155 to 156	CC(C)(C)OC(=O)N1CC(=O)CC1C(=O)O (stereo not given)
154	O=C(CNc1ccccc1)Nc1ccc(Br)cc1
36.5 to 39	CC(=O)c1ccnc(Cl)c1
166 to 168	Cc1cc2nnc(C(=O)O)c(C)n2n1
84 to 88	CC(=O)Nc1cccc(N)c1
104	N#CC(C(N)=O)=C(SCc1ccccc1)SCc1ccccc1
220	O=C(O)[C@@H]1CCCC[C@H]1C(=O)O (relative stereo)
200 to 203	NC(=S)NNC(N)=S
51 to 53	OCC1OC1c1ccccc1 (stereo not given)
178 to 182	CC(C)(C)NC(N)=O
45 to 46	CC(=Cc1ccccc1)C(=O)Cl

Source: a melting point compilation (Tetko et al.)
